Measurements reported in US20060019958A1, “Immunity-related protein kinase inhibitors” (priority 2002, published 2006).

Columns and labels:
[1] = tested on: IκBα phosphorylation in HepG2 cells; test: Detection of phosphorylated IκBα by Western blot method under TNFα stimulation; format: cell-based; details: 40 ng/ml human TNFα, 20 μM MG-132
Experimental: Detection of Phosphorylated IκBα by Western Blot Method
[…] After 45 minutes, 40 ng/ml of human TNFα was further added. Ten minutes after the addition of the TNFα, the cells were collected, and a cell lysate was prepared by using a tip-type ultrasonic processor (Dr.Hielsher; UP-50H). After the measurement of a protein concentration using a BCA protein assay kit by Pierce (BSA standard), 30 μg of the cell lysate was applied to each lane of 12% SDS slab gel (mini gel) and an electrophoresis was carried out. After the electrophoresis, a detection of phorphorylated IκBα by Western blot method was carried out using anti-phosphorylated IκBα (Ser32) antibody (Cell Signaling) as a primary antibody and […] as a secondary antibody.

[2] = tested on: NF-κB activation by forced expression of MEKK-1 in HeLa cells; test: Inhibition of NF-κB activation by forced expression of MEKK-1 (luciferase reporter assay); format: cell-based, human; details: MEKK-1 forced expression, 24 hours
Source text: Measurement of Inhibition of NF-κB Activation by Forced Expression of MEKK-1
Using a transfection reagent(Effectene; QIAGEN), human uterine cancer cell strain HeLa was cotransfected with a plasumid (pNF κB-Luc Reporter Plasmid: STRATAGENE) integrated with an oligonucleotide having five tandem copies of NF-κB binding sequences(TGGGGACTTTCCGC) on an upstream region of the firefly luciferase gene(Luc) and the MEKK-1 gene-contained expression vector(pFC-MEKK: STRATAGENE) according to the QIAGEN's protocol, and the cells were incubated for 24 hours. After incubation in the presence or absence of a test compound for 24 hours, intracellular luciferase activity was measured by using PicaGene LT(TOYO INK MFG Co., Ltd.) and a chemical luminescence measurement apparatus(SPECTRAFluor Plus; TECAN). The inhibitory ratio was measured as a ratio relative to the value of the luciferase activity in the absence of the test compound.

Compound	Inhibition Ratio of I κ B phosphorylation(%) ([1]; Drug Concentration 2 μg/ml)	other results
O=C(Nc1cc(C(F)(F)F)cc(C(F)(F)F)c1)c1cc(-c2ccccc2)ccc1O [Compound No. 67]	43.8	–
CC(C)(C)C(=O)c1sc(NC(=O)c2cc(Cl)ccc2O)nc1C(C)(C)C [compound 195, 5-Chloro-N-{4-[(1,1-dimethyl)ethyl]-5-[(2,2-dimethyl)propionyl]thiazol-2-yl}-2-hydroxybenzamide]	63.5	–
CC(C)(C)c1ccc(O)c(C(=O)Nc2cc(C(F)(F)F)cc(C(F)(F)F)c2)c1 [Compound No. 56, N-[3,5-Bis(trifluoromethyl)phenyl]-5-[(1,1-dimethyl)ethyl]-2-hydroxybenzamide]	31.3	–
CC(=O)Oc1ccccc1C(=O)Nc1cc(Cl)cc(Cl)c1 [compound 172, 2-acetoxy-N-(3,5-dichlorophenyl)benzamide]	–	melting point: 218 to 219 °C
O=C(Nc1cc(C(F)(F)F)cc(C(F)(F)F)c1)c1cc(-n2cccc2)ccc1O [Compound No. 71]	29.5	–
CC(C)(C)c1nc(NC(=O)c2cc(Br)ccc2O)sc1N1CCN(c2ccccc2)CC1 [compound 201, 5-Bromo-N-{4-[(1,1-dimethyl)ethyl]-5-(4-phenylpiperazin-1-yl)thiazol-2-yl}-2-hydroxybenzamide]	57.4	–
O=C(Nc1cc(C(F)(F)F)cc(C(F)(F)F)c1)c1cc(Cl)ccc1O [Compound No. 50, N-[3,5-Bis(trifluoromethyl)phenyl]-5-chloro-2-hydroxybenzamide]	43.0	Inhibitory Ratio of NF-κB Activation(%) ([2]; Drug Concentration 1 μg/ml): 92.6%; Inhibitory Ratio of NF-κB Activation(%) ([2]; Drug Concentration 10 μg/ml): 93.2%
COc1cc(/C=C/C(=O)CC(=O)/C=C/c2ccc(O)c(OC)c2)ccc1O [curcumin]	–	Inhibition Ratio of I κ B phosphorylation(%) ([1]; Drug Concentration 100 μM): 51.6%
CC(C)(C)c1nc(NC(=O)c2cc(Br)ccc2O)sc1N1CCOCC1 [compound 199, 5-Bromo-N-{4-[(1,1-dimethyl)ethyl]-5-morpholinothiazol-2-yl}-2-hydroxybenzamide]	47.9	–
